Ten compounds from ChEMBL document CHEMBL1201862, “PubChem BioAssay data set” (2004) can be followed below.

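How tested: cells in 96-well plates exposed to compound for 48 hours at five concentrations. At the GI50, growth is halved.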 The source made the active and inactive calls. No stated cut-off is given here; in the data, active = GI50 up to about 1.1 µM and inactive = higher.

Some test systems named below: ACHN; UO-31; DU-145; Hs-578T; CCRF-CEM; SK-OV-3; TK-10; MOLT-4; UACC-62; OVCAR-3; OVCAR-5; SF-539; SF-268; MDA-N; OVCAR-8; CAKI-1; BT-549; SK-MEL-28; M14; K562.
Test in all cases: NCI tumour cell line growth inhibition, 48 h

As for `c1ccc(CCNCc2ccco2)nc1`, the GI50 was > 100 µM (inactive) in the test on ACHN; > 100 µM (inactive) with UO-31; > 100 µM (inactive) in the test on DU-145; > 100 µM (inactive) in the test on Hs-578T; > 48.6 µM (inactive) in the test on CCRF-CEM; > 100 µM (inactive) with SK-OV-3. The GI50 in the test with TK-10, with MOLT-4, with UACC-62, with OVCAR-3, in the test on OVCAR-5 and in the test with SF-539 was > 100 µM (inactive) throughout. Also, the GI50 in the test on SF-268, in the test with MDA-N, with OVCAR-8, in the test on CAKI-1, with BT-549 and in the test on SK-MEL-28 was > 100 µM (inactive) in each case. Besides, the GI50 in the test with M14 was > 100 µM (inactive).

Take `O=C(OCc1ccccc1)N1CCNCCN(C(=O)OCc2ccccc2)CCNCC1`: the GI50 with K562 was 25.5 µM (inactive); with ACHN it was 50.4 µM (inactive); with UO-31 it was 7.03 µM (inactive); in the test with DU-145 it was 95.7 µM (inactive); in the test on Hs-578T it was 21.2 µM (inactive); with CCRF-CEM it was 36.5 µM (inactive). The GI50 with SK-OV-3 is 49.8 µM (inactive); in the test with TK-10, 91.8 µM (inactive); with MOLT-4, 18 µM (inactive); in the test on UACC-62 it was 27.5 µM (inactive); with OVCAR-3 it was 35.4 µM (inactive); in the test on OVCAR-5, 32.2 µM (inactive). For the same compound, the GI50 with SF-539 is 14.6 µM (inactive); in the test with MDA-N it was 15.6 µM (inactive); in the test on OVCAR-8, 55.1 µM (inactive); with CAKI-1 it was 15 µM (inactive); with BT-549 it was 45.6 µM (inactive); with SK-MEL-28, 19.5 µM (inactive).

For `CCOP(=O)(OCC)/C(C#N)=C/c1cccn1N(C)C`, the GI50 is > 100 µM (inactive) in the test on K562; > 100 µM (inactive) with ACHN; > 100 µM (inactive) in the test with UO-31; 0.144 µM (active) in the test on DU-145; > 100 µM (inactive) in the test with Hs-578T; > 100 µM (inactive) with CCRF-CEM. Besides, the GI50 with SK-OV-3, in the test on TK-10, in the test with MOLT-4, in the test on UACC-62, in the test with OVCAR-3 and in the test with OVCAR-5 was > 100 µM (inactive) in each case. Besides, the GI50 with SF-539 is > 100 µM (inactive); in the test with SF-268, > 100 µM (inactive); in the test with MDA-N, 0.0356 µM (active); with OVCAR-8 it was > 100 µM (inactive); in the test on CAKI-1 it was > 100 µM (inactive); in the test on BT-549 it was 62.2 µM (inactive). Further, the GI50 in the test with SK-MEL-28 and in the test on M14 was > 100 µM (inactive) throughout.

As to `Cc1cc(=O)n2nc(CSc3nnc(N)s3)sc2n1`, the GI50 in the test on K562, in the test on ACHN, in the test with UO-31, in the test on DU-145, in the test with Hs-578T and in the test with CCRF-CEM was > 100 µM (inactive) each time. Further, the GI50 in the test with SK-OV-3, with TK-10, in the test on MOLT-4, in the test with UACC-62, with OVCAR-3 and in the test on OVCAR-5 was > 100 µM (inactive) in each case. Also, the GI50 in the test with SF-539, with SF-268, in the test with MDA-N, in the test with OVCAR-8, with CAKI-1 and in the test with BT-549 was > 100 µM (inactive) throughout. The GI50 with SK-MEL-28 and with M14 was > 100 µM (inactive) in each case.

As to `CN(C)c1ccc(/C=C2\N=C(c3ccc([N+](=O)[O-])cc3)OC2=O)cc1`, the GI50 is 36.1 µM (inactive) with K562; 47.6 µM (inactive) in the test with ACHN; > 100 µM (inactive) in the test with DU-145; 40.5 µM (inactive) with Hs-578T; 43.7 µM (inactive) in the test with CCRF-CEM; > 100 µM (inactive) in the test with SK-OV-3. The GI50 with TK-10 was > 100 µM (inactive); in the test with MOLT-4 it was > 100 µM (inactive); in the test with UACC-62, 65.9 µM (inactive); with OVCAR-3, 44.9 µM (inactive); with OVCAR-5, > 100 µM (inactive); in the test on SF-539, 74.5 µM (inactive). The GI50 in the test on SF-268 was 71.6 µM (inactive); in the test with MDA-N it was 78.9 µM (inactive); in the test on OVCAR-8, 74.8 µM (inactive); with CAKI-1 it was > 100 µM (inactive); in the test with BT-549 it was 71.6 µM (inactive); in the test on SK-MEL-28, > 100 µM (inactive). For the same compound, the GI50 in the test with M14 is > 100 µM (inactive).

Turning to `CN1C2CC(=O)CC1[C@@H]1OC(c3ccccc3)O[C@H]21` (stereo not given in full), the GI50 with K562, in the test with UO-31, with DU-145, with Hs-578T, with CCRF-CEM and with SK-OV-3 was > 100 µM (inactive) throughout. Moreover, the GI50 with TK-10, in the test with MOLT-4, with UACC-62, with OVCAR-3, with SF-539 and in the test on SF-268 was > 100 µM (inactive) throughout. Further, the GI50 in the test with MDA-N, in the test on OVCAR-8, in the test with CAKI-1, in the test with BT-549, in the test on SK-MEL-28 and in the test on M14 was > 100 µM (inactive) in each case.

As for `CC(C)(C)C(=O)CC1(O)C=C(O)C(O)(CC(=O)C(C)(C)C)O1` (stereo not given), the GI50 with K562 was 54.8 µM (inactive); in the test on UO-31, 29.4 µM (inactive); in the test with DU-145 it was 50.2 µM (inactive); with Hs-578T it was 35.2 µM (inactive); in the test on CCRF-CEM, 6.46 µM (inactive); in the test with SK-OV-3 it was 29.9 µM (inactive). For the same compound, the GI50 in the test on TK-10 was 82.2 µM (inactive); in the test with MOLT-4, 8.51 µM (inactive); in the test with UACC-62, 26.5 µM (inactive); with OVCAR-3 it was 59.4 µM (inactive); with OVCAR-5, > 100 µM (inactive); with SF-539 it was 18.8 µM (inactive). The GI50 in the test with SF-268 is 11.6 µM (inactive); in the test on MDA-N, 43.2 µM (inactive); in the test on OVCAR-8, 23.6 µM (inactive); in the test with CAKI-1, 13.6 µM (inactive); in the test with BT-549 it was 66.4 µM (inactive); with SK-MEL-28, 31.6 µM (inactive). Besides, the GI50 in the test on M14 is 15.8 µM (inactive).

Consider `O=C1C[C@@H](c2ccccc2)NCCCCN(O)CCCN1`, for which the GI50 with ACHN, in the test with UO-31, in the test on DU-145, with Hs-578T, in the test with CCRF-CEM and in the test on SK-OV-3 was > 100 µM (inactive) throughout. Besides, the GI50 in the test on TK-10, in the test with MOLT-4, in the test on UACC-62, in the test on OVCAR-3, with OVCAR-5 and with SF-539 was > 100 µM (inactive) in each case. The GI50 in the test on SF-268, with MDA-N, with OVCAR-8, in the test on CAKI-1, with BT-549 and in the test on SK-MEL-28 was > 100 µM (inactive) throughout. Further, the GI50 in the test with M14 was > 100 µM (inactive).

As for `NNC(=O)c1ccccc1NC(=O)/C(=C/c1ccccc1O)NC(=O)c1ccccc1`, the GI50 was > 100 µM (inactive) with K562; 17.9 µM (inactive) in the test on ACHN; 11.9 µM (inactive) in the test with UO-31; > 100 µM (inactive) in the test with DU-145; 14.7 µM (inactive) with Hs-578T; > 100 µM (inactive) with CCRF-CEM. Moreover, the GI50 in the test with SK-OV-3 was 39.7 µM (inactive); in the test on TK-10, > 100 µM (inactive); in the test with MOLT-4, > 100 µM (inactive); in the test on UACC-62 it was 67.1 µM (inactive); with OVCAR-5 it was > 100 µM (inactive); in the test with SF-539, 20.1 µM (inactive). For the same compound, the GI50 in the test on SF-268 is 12.8 µM (inactive); in the test on MDA-N, 4.56 µM (inactive); in the test with OVCAR-8, 18.1 µM (inactive); in the test with CAKI-1, 12.9 µM (inactive); in the test on BT-549, 31.8 µM (inactive); in the test on SK-MEL-28, > 100 µM (inactive). The GI50 in the test on M14 was 55.6 µM (inactive).

Consider `COc1ccc([C@H](NC(=O)c2ccccc2)[C@@H](O)C(=O)O[C@H]2C[C@@]3(O)C(OC(=O)c4ccccc4)C4[C@](C)(C(=O)[C@H](OC(C)=O)C(=C2C)C3(C)C)[C@@H](O)C[C@H]2OC[C@@]42OC(C)=O)cc1` (stereo not given in full), for which the GI50 in the test on K562 was 0.00122 µM (active); in the test on ACHN, 0.724 µM (active); in the test on UO-31 it was 0.126 µM (active); with DU-145 it was 0.00248 µM (active); in the test on Hs-578T it was < 0.001 µM (active); in the test with CCRF-CEM, 0.00184 µM (active). For the same compound, the GI50 with SK-OV-3 was 0.00117 µM (active); in the test with TK-10 it was 0.0703 µM (active); with MOLT-4, 0.00286 µM (active); in the test on UACC-62, 0.00136 µM (active); with OVCAR-5, 0.182 µM (active); with SF-539, 0.00112 µM (active). For the same compound, the GI50 was 0.00415 µM (active) with SF-268; 0.00468 µM (active) in the test with MDA-N; 0.00434 µM (active) in the test with OVCAR-8; 0.249 µM (active) in the test with CAKI-1; 0.0299 µM (active) in the test with BT-549; 0.00593 µM (active) in the test with SK-MEL-28. In addition, the GI50 in the test with M14 is 0.00604 µM (active).
